Holding throughout (format): in vivo
The test system of assay [1] is ApoE−/− and ApoE−/−/IDO−/− mice. In words: Serum cytokine in AngII-infused mice. The note with it: 4 weeks, mean ± s.e.m. From the text:
(§1) IDO^−/− and ApoE^−/− mice were obtained from Jackson laboratory (Bar Harbor, Maine) in a C57BL/6 background. IDO^−/− mice were crossed with ApoE^−/− mice to generate ApoE^−/−/IDO^−/− mice. Mice were housed in temperature-controlled cages under a 12-hour light/dark cycle and given free access to water and normal chow. All procedures involving animals were approved by the Institutional Animal Care and Use Committee at the University of Oklahoma Health Sciences Center. […] Circ Res. (2014) 114:480-92.
AngII infusion is intensely associated with vascular inflammation, which is considered a key mediator of AngII-induced AAA formation. See Qin Z, et al., Angiotensin II-induced TLR4 mediated abdominal aortic aneurysm in apolipoprotein E knockout mice is dependent on STAT3. J Mol Cell Cardiol. (2015) 87:160-70; Owens A P, et al., MyD88 deficiency attenuates angiotensin II-induced abdominal aortic aneurysm formation independent of signaling through Toll-like receptors 2 and 4. Arterioscler Thromb Vasc Biol. (2011) 31:2813-9. […] Circ Res. (2014) 114:480-92. Similarly, an increase in IFN-γ expression was evident in the aortas of AngII-treated ApoE^−/− and ApoE^−/−/IDO^−/− mice. The consequent induction of IDO expression in the aortas of AngII-infused ApoE^−/− mice was also observed (FIGS. 2A, 2B, and 2E). […] This may be due to the high content of Trp in mouse diets.

Assay [2] concerns ApoE−/− mice. In words: Acipimox preventing AngII-induced AAA in aged mice (Example 16). The note with it: AngII 1,000 ng/kg/min four weeks. The protocol: To compare the effect of acipimox on treating AngII-induced abdominal aortic aneurysm in young (3 months old) or old (24 months old) mice, male ApoE^−/− mice in the aged mice group were treated with acipimox (0.1% wt) or vehicle control (water) by drinking water for 6 weeks. Four weeks later, mice in both age groups were infused with AngII (1,000 ng/kg/min) or saline (0.9% sodium chloride) by Alzet osmotic pumps for four weeks. AAA incidence and maximal abdominal aorta diameter were examined to evaluate the therapeutic effect of acipimox on AngII-induced AAA in old mice.
To quantify AAA incidence and size, the maximum width of abdominal aorta was measured with Image Pro Plus software (Media Cybernetics). Aneurysm incidence was quantified based on a definition of aneurysm as an external width of the suprarenal aorta that was increased by 50% or greater compared with aortas from saline-infused mice. The average diameter of the normal suprarenal aorta in control mice is 0.705 mm. Therefore, a threshold of 1.06 mm as evidence of aneurysm formation was set. […] After 4-weeks of AngII-infusion, mice where divided into two groups vehicle treated (n=10) or acipimox treated (n=15). Before treatment, the AAA incidence was 20% and 70% in young and old mice, respectively. After six weeks of treatment acipimox, AAA incidence decreased to 25% in the old mice group. […]

Assay [3] concerns ApoE−/− mice. Briefly: OMBA, NBA and 1MT treating AngII-induced abdominal aortic aneurysm (Example 15). The note with it: ApoE−/− mice; AngII 1,000 ng/kg/min four weeks, then drug in drinking water 6 weeks; mice with AAA/group size. As for the experimental part:
To test the effect of other Kynurenine pathway inhibitors on treating AngII-induced abdominal aortic aneurysm, male ApoE^−/− mice at age 8 weeks were infused with AngII (1,000 ng/kg/min) or saline (0.9% sodium chloride) by Alzet osmotic pumps for four weeks. Four weeks later, Ang-II treated mice were divided into […] groups of 18 and administered o-methoxybenzo ylalanine (OMB), (m-nitrobenzoyl)alanine (NBA), 1-methyltryptophan (1MT) or vehicle control (water) by drinking water for 6 weeks.
To quantify AAA incidence and size, the maximum width of abdominal aorta was measured with Image Pro Plus software (Media Cybernetics). Aneurysm incidence was quantified based on a definition of aneurysm as an external width of the suprarenal aorta that was increased by 50% or greater compared with aortas from saline-infused mice. The average diameter of the normal suprarenal aorta in control mice is 0.8 mm. Therefore, a threshold of 1.22 mm as evidence of aneurysm formation was set. […] Incidence of AAA among the various groups of mice is outlined in FIG. 31A and Table 5 below.

The subject of assay [4] is ApoE−/− and ApoE−/−/IDO−/− mice. Briefly: Blood pressure and heart rate in AngII-infused mice. The following applies: 4 weeks, mean ± s.e.m.; for sBP: AngII 1000 ng/min/kg; for Dbp / HR: AngII.
Source text: as §1
Circ Res. (2014) 114:480-92.
AngII-induced mouse AAA formation in the atherosclerotic-susceptible strain (ApoE^−/−) has become the most widely used model. See Qin Z, et al., Angiotensin II-induced TLR4 mediated abdominal aortic aneurysm in apolipoprotein E knockout mice is dependent on STAT3. J Mol Cell Cardiol. (2015) 87:160-70; Rateri D L, et al., Prolonged infusion of angiotensin II in ApoE (−/−) mice promotes macrophage recruitment with continued expansion of abdominal aortic aneurysm. Am J Pathol. (2011) 179:1542-8; Cassis L A, et al., ANG II infusion promotes abdominal aortic aneurysms independent of increased blood pressure in hypercholesterolemic mice. Am J Physiol Heart Circ Physiol. (2009) 296:H1660-5; Daugherty A and Cassis L A. Mouse models of abdominal aortic aneurysms. Arterioscler Thromb Vasc Biol. (2004) 24:429-34; Owens A P, 3rd, Rateri D L, Howatt D A, Moore K J, Tobias P S, Curtiss L K, Lu H, Cassis L A and Daugherty A. MyD88 deficiency attenuates angiotensin II-induced abdominal aortic aneurysm formation independent of signaling through Toll-like receptors 2 and 4. Arterioscler Thromb Vasc Biol. (2011) 31:2813-9. To unravel the role of the Trp-Kyn pathway in AAA formation ApoE^−/−/IDO^−/− (double-knockout) mice were generated and the outcome of a 4-week AngII infusion (1000 ng/min/kg) in ApoE^−/− and ApoE^−/−/IDO^−/− mice was determined. As depicted in Table 1 and 2, AngII infusion increased blood pressure without affecting the heart rate or any metabolic parameters.

Consider “Angiotensin II (DRVYIHPF; Angiotensin-2; UniProt P01019 25-32, looked up) [AngII, Angiotensin II (Sigma, A9525) infused to induce AAA in mice]”, for which, in assay [1] (Apoe−/− mice), the CyPA stood at 771.8 ± 36.8 pM, the IFN-y is 24.91 ± 1.75 pg/mL, the “IL -6” value turned out to be 20.07 ± 3.25 pg/mL and the TNF - a was 123.7 ± 18.2 pg/mL. Further, in assay [1] (Apoe−/−/IDO−/− mice), the CyPA amounted to 572.2 ± 42.7 pM, the IFN-y stood at 28.32 ± 2.73 pg/mL, the “IL -6” value came to 22.25 ± 5.45 pg/mL and the TNF - a came out at 118.5 ± 16.1 pg/mL. Further, in the assay on ApoE−/− mice [2] (old (24 months old) ApoE−/− mice), the AAA incidence is 70%. Also, the AAA incidence in the assay on ApoE−/− mice [2] (young (3 months old) ApoE−/− mice) worked out at 20%. In addition, the “Incidence of AAA” value with ApoE−/− mice [3] is given as 15/18. Further, in assay [4] (Apoe−/− mice), the sBP stood at 149.1 ± 19.5 mm Hg, the Dbp was determined as 112.7 ± 17.3 mmHg and the HR came out at 471 ± 42 Beats/min. In assay [4] (Apoe−/−/IDO−/− mice), this substance displayed a sBP of 155.6 ± 18.4 mm Hg, a Dbp of 119.1 ± 14.9 mmHg and an HR of 453 ± 43 Beats/min.

Values taken from patent publication US12280047B2, “Treatment of aneurysms” (Georgia State Research Foundation, Inc., priority 2017, dated 2025).
